According to US9302991B2, “Arylamide derivatives as TTX-S blockers” (RaQualia Pharma Inc., priority 2010, dated 2016):
“And” between values parts separate entries of the source, which are not always exact repeats. Identical values can stand only once.

Experiments:
[1] = molecular target: T1, human Nav1.5 channels (Homo sapiens, UniProt Q14524); test: FRET assay, human Nav1.5 (EFS on FDSS); type: cell-based; conditions: HEK293 cells expressing human Nav1.5, read-out: activities against Nav1.5
T1 construct: expressed in transfected cells; host or cells: HEK293
Procedure: The inhibitory activities of compounds against voltage gated sodium channels are determined by methodology well known in the art.
The ability of the aryl substituted carboxamide derivatives of the formula (I) to inhibit the NaV1.3, Nav1.7 and Nav1.5 channels is measured by Fluorescence Resonance Energy Transfer (FRET) assay and electrophysiology assay described below.
This screen is used to determine the effects of compounds on human Nav1.3, human Nav1.7, and human Nav1.5 channels, utilising electrical field stimulation (EFS) system in 96-well plate format on FDSS (Hamamatsu Photonics) platform. The change of membrane potential is monitored with FRET dye pair, oxonol (DiSBAC2(3)) and coumarin (CC2-DMPE).
Each HEK293 cells expressing human Nav1.3 channels and HEK293 cells expressing human Nav1.5 channels are grown in T225 flasks, in a 5% CO2 humidified incubator to about 80% confluence. Media composition consists of Dulbecco's Modified Eagle Medium (high glucose), 10% FCS, 100 units/mL Penicillin, 100 microgram/mL Streptomycin and 500 microgram/mL Geneticine. […]
The data are analyzed and reported as normalized ratios of intensities measured at […]. […]
This analysis is performed using a computerized specific program designed for FDSS generated data. Fluorescence ratio values are plotted using XLfit to determine an IC50 value for each compound.

[2] = molecular target: T2, human Nav1.3 channels (Homo sapiens, UniProt Q9NY46); test: FRET assay, human Nav1.3 (EFS on FDSS); type: cell-based; conditions: HEK293 cells expressing human Nav1.3, read-out: IC50 against Nav1.3
T2 construct: expressed in transfected cells; host or cells: HEK293
Summary of the method: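 HEK293 cells expressing the channel, loaded with 10 microM CC2-DMPE then 15 microM DiSBAC2(3) plus 0.555 mM VABSC-1 in pH 7.4 HEPES buffer at room temperature. Membrane potential changes evoked by electrical field stimulation after compound addition; IC50 from 440 nm-normalized FRET ratios.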

[3] = molecular target: T3, human Nav1.7 channels (Homo sapiens, UniProt Q15858); test: FRET assay, human Nav1.7 (EFS on FDSS); type: cell-based; conditions: CHO cells expressing human Nav1.7, read-out: IC50 against Nav1.7
T3 construct: expressed in transfected cells; host or cells: CHO
Summary of the method: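 CHO cells stably expressing the channel, loaded with CC2-DMPE (10 µM) then DiSBAC2(3) (15 µM) plus VABSC-1, in HEPES-buffered saline pH 7.4 at room temperature. Electrical field stimulation on FDSS; FRET ratio at 440 nm fitted for IC50.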

[4] = system: CFA-induced weight bearing deficit in rats; test: CFA-induced weight bearing deficit in rats; type: in vivo, Sprague-Dawley rats; conditions: 10 mg/kg per os
Procedure: CFA-Induced Weight Bearing Deficit in Rats
Male Sprague-Dawley rats at 7 weeks old are purchased from Charles River Japan Inc., and housed in groups of two per cage under a 12-h light/dark cycle (lights on at 07:00) with access to food and water ad libitum. CFA-induced weight bearing (WB) deficit is assessed using Incapacitance tester (Linton Instrumentation). The animals are habituated to a plastic case that comes with Incapacitance tester before the day of CFA injection. On the day of CFA injection, the weight distribution of each hind paw is measured 3 times per rat using the tester, and the difference of weight distribution, weight on the right (injected) paw minus weight on left (non-injected) paw, is defined as WB deficit value in g. The duration of the each measurement is adjusted to 3 seconds. CFA is prepared at a concentration of 2-3 mg/mL of Mycobacterium tuberculosis H37 RA in liquid paraffin. After disinfections with 70% ethanol, the rats are injected intraplantarly with 100 microL of CFA (200-300 microgram) into the right hind paw. Two days after CFA injection, the weight distribution of each hind paw is measured and the WB deficit value is calculated in the same manner as mentioned above. […] The weight distribution of each hind paw is measured at the appropriated time after compound administration, and the WB deficit value is calculated as previously explained.

[5] = system: CFA-induced thermal hyperalgesia in rats; test: Complete Freund's Adjuvant (CFA)-induced thermal hyperalgesia in rats; type: in vivo, Sprague-Dawley rats; conditions: 30 mg/kg per os
Procedure: Complete Freund's Adjuvant (CFA)-Induced Thermal Hyperalgesia in Rats
Male Sprague-Dawley rats at 6 weeks old are purchased from Charles River Japan Inc., and housed in groups of two per cage under a 12-h light/dark cycle (lights on at 07:00) with access to food and water ad libitum. CFA-induced thermal hyperalgesia is assessed using the plantar test apparatus (Ugo Basile) as described by Hargreaves K et al. (Pain 1988, 32: 77-88). The animals are placed in an apparatus consisting of individual testing box on an elevated glass table and allowed to acclimate for at least 10 minutes. Following the habituation, a mobile radiant heat source is located under the table and heat stimulation is applied to the plantar surface of the right hind paw. The latency to remove its hind paw is defined as paw withdrawal latency (PWL) in sec. The cut-off point is set at 30 seconds to prevent tissue damage. CFA is prepared at a concentration of 2-3 mg/mL of Mycobacterium tuberculosis H37 RA in liquid paraffin. After disinfections with 70% ethanol, the rats are injected intraplantarly with 100 microL of CFA (200-300 microgram) into the right hind paw. Two days after CFA injection, PWL is measured in the same manner as mentioned above. […] The PWL is measured at the appropriated time after compound administration. […]

T3 sequence (Q15858 whole entry): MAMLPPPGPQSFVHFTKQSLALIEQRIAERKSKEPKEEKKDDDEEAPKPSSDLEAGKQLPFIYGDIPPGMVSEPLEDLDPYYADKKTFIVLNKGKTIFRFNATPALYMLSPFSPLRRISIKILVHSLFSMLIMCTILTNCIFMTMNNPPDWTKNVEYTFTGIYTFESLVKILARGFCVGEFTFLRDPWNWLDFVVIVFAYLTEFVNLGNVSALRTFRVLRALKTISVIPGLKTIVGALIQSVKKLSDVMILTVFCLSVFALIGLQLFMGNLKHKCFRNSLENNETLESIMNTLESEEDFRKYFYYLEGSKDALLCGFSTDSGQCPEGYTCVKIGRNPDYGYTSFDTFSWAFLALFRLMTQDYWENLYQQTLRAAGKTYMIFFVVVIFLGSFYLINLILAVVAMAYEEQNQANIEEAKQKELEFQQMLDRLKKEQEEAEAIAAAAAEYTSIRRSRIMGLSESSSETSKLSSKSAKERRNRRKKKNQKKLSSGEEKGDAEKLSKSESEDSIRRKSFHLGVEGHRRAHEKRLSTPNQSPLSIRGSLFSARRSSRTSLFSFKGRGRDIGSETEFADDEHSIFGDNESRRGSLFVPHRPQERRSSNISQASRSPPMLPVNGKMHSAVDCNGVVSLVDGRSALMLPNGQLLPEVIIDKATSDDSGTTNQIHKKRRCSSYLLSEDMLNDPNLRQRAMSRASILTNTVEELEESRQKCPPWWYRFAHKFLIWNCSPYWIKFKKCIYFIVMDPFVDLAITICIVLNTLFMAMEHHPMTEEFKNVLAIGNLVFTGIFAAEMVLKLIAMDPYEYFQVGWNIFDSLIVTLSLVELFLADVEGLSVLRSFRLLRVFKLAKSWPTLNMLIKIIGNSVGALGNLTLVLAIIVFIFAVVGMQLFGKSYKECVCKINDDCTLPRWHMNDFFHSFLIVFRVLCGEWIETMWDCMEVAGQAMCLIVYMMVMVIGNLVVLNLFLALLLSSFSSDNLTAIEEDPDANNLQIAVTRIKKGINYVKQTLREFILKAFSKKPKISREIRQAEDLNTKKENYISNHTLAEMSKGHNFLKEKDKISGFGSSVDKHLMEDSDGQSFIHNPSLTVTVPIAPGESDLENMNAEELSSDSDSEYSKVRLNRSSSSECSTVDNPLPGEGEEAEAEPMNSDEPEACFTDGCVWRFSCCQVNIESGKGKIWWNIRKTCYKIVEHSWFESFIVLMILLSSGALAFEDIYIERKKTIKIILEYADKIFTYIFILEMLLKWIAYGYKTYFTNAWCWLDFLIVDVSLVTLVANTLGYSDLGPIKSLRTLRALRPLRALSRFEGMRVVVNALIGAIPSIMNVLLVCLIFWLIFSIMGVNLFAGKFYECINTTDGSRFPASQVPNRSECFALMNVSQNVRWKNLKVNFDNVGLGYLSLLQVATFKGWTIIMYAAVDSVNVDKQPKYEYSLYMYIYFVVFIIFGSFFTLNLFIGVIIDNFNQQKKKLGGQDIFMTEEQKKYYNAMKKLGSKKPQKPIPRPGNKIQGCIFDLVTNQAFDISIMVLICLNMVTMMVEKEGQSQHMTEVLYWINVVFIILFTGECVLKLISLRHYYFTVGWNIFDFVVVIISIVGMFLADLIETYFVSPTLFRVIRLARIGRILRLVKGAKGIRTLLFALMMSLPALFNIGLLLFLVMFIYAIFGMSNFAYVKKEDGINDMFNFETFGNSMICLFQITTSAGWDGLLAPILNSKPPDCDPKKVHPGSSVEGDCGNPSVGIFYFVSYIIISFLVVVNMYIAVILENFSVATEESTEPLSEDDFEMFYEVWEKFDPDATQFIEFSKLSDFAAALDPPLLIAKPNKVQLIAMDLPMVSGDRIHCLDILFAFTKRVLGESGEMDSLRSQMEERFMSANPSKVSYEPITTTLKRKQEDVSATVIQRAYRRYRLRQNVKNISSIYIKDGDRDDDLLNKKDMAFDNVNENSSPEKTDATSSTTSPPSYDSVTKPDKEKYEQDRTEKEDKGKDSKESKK
T2 sequence (Q9NY46 whole entry): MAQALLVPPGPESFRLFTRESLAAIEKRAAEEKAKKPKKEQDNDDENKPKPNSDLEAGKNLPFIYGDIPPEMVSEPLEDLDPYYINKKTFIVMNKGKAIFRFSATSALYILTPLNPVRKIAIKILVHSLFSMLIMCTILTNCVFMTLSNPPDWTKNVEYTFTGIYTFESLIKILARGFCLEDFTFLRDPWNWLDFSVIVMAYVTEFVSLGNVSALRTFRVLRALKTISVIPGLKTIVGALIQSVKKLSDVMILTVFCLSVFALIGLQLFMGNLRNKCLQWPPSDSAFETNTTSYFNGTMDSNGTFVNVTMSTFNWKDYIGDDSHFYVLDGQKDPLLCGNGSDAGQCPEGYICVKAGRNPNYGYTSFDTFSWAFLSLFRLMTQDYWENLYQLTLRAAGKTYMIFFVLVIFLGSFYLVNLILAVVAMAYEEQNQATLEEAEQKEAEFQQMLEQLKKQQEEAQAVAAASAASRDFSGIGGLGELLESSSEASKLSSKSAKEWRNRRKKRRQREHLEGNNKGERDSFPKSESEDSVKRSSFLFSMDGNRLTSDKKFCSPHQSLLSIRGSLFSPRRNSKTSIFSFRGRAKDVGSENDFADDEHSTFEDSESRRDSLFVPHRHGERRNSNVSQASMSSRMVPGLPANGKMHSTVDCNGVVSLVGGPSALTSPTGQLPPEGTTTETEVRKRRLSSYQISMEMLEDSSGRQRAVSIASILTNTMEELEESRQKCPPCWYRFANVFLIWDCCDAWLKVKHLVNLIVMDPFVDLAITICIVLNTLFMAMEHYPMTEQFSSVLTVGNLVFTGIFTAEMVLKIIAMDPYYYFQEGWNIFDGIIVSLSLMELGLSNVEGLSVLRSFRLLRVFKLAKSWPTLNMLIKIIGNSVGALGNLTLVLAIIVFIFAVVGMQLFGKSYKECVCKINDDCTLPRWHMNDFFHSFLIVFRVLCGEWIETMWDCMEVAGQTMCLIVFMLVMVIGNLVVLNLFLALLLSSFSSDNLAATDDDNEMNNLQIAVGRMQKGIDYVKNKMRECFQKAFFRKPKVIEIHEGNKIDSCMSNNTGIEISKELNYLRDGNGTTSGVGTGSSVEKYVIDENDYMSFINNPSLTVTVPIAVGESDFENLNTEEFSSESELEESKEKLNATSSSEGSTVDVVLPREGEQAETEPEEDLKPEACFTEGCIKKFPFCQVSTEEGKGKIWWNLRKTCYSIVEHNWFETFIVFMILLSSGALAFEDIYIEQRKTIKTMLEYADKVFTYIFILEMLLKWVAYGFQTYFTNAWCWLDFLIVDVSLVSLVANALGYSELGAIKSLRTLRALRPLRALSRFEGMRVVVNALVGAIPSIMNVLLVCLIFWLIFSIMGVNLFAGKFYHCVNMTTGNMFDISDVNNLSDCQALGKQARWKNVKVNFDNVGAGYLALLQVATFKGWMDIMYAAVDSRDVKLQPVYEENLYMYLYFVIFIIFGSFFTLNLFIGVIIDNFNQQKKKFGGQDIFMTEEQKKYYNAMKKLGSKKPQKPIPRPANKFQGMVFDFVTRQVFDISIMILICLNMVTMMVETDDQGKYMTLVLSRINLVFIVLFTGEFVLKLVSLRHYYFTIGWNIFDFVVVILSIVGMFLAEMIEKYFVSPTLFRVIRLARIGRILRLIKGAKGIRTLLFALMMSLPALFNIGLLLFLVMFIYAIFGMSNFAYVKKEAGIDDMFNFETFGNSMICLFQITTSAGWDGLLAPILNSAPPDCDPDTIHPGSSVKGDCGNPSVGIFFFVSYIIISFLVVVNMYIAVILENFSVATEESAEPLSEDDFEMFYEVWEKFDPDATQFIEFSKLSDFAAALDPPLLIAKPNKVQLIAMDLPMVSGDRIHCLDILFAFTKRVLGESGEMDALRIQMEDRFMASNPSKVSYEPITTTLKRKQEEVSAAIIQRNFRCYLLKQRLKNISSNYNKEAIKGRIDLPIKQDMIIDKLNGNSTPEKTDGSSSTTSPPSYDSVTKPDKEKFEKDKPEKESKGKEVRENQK

## CC(=O)Nc1cc(C(=O)NC(C)c2ccc(OCC(F)(F)F)nc2)ccn1 (single isomer, unassigned; (-)) [Example 1, (−)-2-acetamido-N-(1-(6-(2,2,2-trifluoroethoxy)pyridin-3-yl)ethyl)isonicotinamide]
[1]
  IC50: > 30 µM
[2]
  IC50: 2800 nM
[3]
  IC50: < 1000 nM and 940 nM
[4]
  activity in CFA-induced weight bearing deficit: significant activity
[5]
  activity in CFA-induced thermal hyperalgesia (PWL): significant activity
